According to PMC7412065, “In Vitro Antimicrobial and Antiproliferative Activities of the Root Bark Extract and Isolated Chemical Constituents of Zanthoxylum paracanthum Kokwaro (Rutaceae)” (Plants, 2020):
≈ marks a conversion by molar mass, not a printed value. Like-named read-outs stand apart in the source and are kept apart here.

Key:
[1] = tested on: Candida albicans (ATCC 10231); assay: Broth dilution MIC against C. albicans; type: cell-based; conditions: for MIC: Candida albicans, read-out: Antimicrobial minimal inhibition concentration (MIC), C. albicans; for Growth inhibition of C. albicans (in words): up to 1000 µg/mL
[2] = tested on: methicillin resistant Staphylococcus aureus (MRSA), un-typed isolate; assay: Broth dilution MIC against MRSA; type: cell-based; conditions: for MIC: Staphylococcus aureus, MRSA, read-out: Antimicrobial minimal inhibition concentration (MIC), MRSA; for MIC / Antimicrobial minimal inhibition concentration (MIC), MRSA: 24 h; for Growth inhibition of MRSA (in words): up to 1000 µg/mL
[3] = tested on: Staphylococcus aureus (ATCC 29213); assay: Broth dilution MIC against S. aureus; type: cell-based; conditions: for MIC: Staphylococcus aureus, ATCC29213, 24 h, read-out: Antimicrobial minimal inhibition concentration (MIC), S. aureus
[4] = MTT cytotoxicity assay, normal cell line; conditions: African green monkey
MRSA = tested on: MRSA; design: method as in PMID 22864735; conditions: compound isolated from Zanthoxylum rhetsa roots; cited from earlier work
[5] = tested on: human breast cancer cell line (HCC 1395); assay: MTT antiproliferative assay, breast cancer cells; type: cell-based; conditions: for IC50: Homo sapiens; for Selectivity Indexes HCC 1395: SI = CC50 (Vero E6) / IC50 (HCC 1395)
E. coli = tested on: E. coli; design: method as in PMID 22864735; conditions: compound isolated from Zanthoxylum rhetsa roots; cited from earlier work
[6] = tested on: human prostate cancer cell line (DU 145); assay: MTT antiproliferative assay, prostate cancer cells; type: cell-based; conditions: for IC50: Homo sapiens; for Selectivity Indexes DU 145: SI = CC50 (Vero E6) / IC50 (DU 145)
[7] = tested on: Escherichia coli (ATCC 25922); assay: Broth dilution MIC against E. coli; type: cell-based; conditions: for MIC: Escherichia coli, read-out: Antimicrobial minimal inhibition concentration (MIC), E. coli
Streptococcus pyogenes = tested on: Streptococcus pyogenes; design: method as in PMID 25546028; conditions: cited from earlier work
Clostridium sporogenes = tested on: Clostridium sporogenes; design: method as in PMID 25546028; conditions: cited from earlier work
in vitro = conditions: African green monkey
[8] = ATCC10231, ATCC 10231, broth two-fold dilution, 30 °C, 72 h
[9] = ATCC 29213, broth two-fold dilution, 37 °C, 24 h
[10] = HCC1395, MTT assay, Mean ± SEM, triplicate, read-out: IC50 Cancerous Cell Lines HCC 1395
[11] = DU-145, MTT assay, Mean ± SEM, triplicate, read-out: IC50 Cancerous Cell Lines DU 145
[12] = ATCC25922, ATCC 25922, broth two-fold dilution, 37 °C, 24 h
[13] = Vero E6 cells (normal cell line)

Compound | MIC [1, 8] [µg/mL] | MIC [3, 9] [µg/mL] | IC50 [5, 10] [µg/mL] | Selectivity Indexes HCC 1395 [5] | IC50 [6, 11] [µg/mL] | Selectivity Indexes DU 145 [6] | MIC [7, 12] [µg/mL] | MIC ([2]; broth two-fold dilution, 37 °C) [µg/mL] | Antimicrobial minimal inhibition concentration (MIC), MRSA ([2]; broth two-fold dilution, 37 °C) [µg/mL] | CC50 at 48 h [4, 13] [µg/mL] | further results
COc1ccc2c(c1OC)C(CC(C)=O)N(C)c1c-2ccc2cc3c(cc12)OCO3 (centres unmarked) [8-acetonyldihydrochelerythrine (4), 8-acetonyldihydrochelerythrine] | 62.5 (≈ 154 µM) | 15.6 (≈ 38.5 µM) | 9.99 ± 0.6 (≈ 24.6 µM) | 4.79 | 66.82 ± 0.58 (≈ 165 µM) | 0.72 | 15.6 (≈ 38.5 µM) | – | – | – | MIC [2]: 31.2 µg/mL (≈ 77.1 µM); CC50 at 48 h [4]: 47.8 ± 1.15 µg/mL (≈ 118 µM); MIC against MRSA (MRSA): 8 µg/mL (≈ 19.7 µM); MIC against E. coli (E. coli): 16 µg/mL (≈ 39.5 µM)
COc1ccc2c(c1OC)c(=O)n(C)c1c3cc4c(cc3ccc21)OCO4 [8-oxochelerythrine (8), 8-oxochelerythrine] | 15.6 (≈ 43 µM) | – | 14.1 ± 0.3 (≈ 38.8 µM) | 9.60 | 63.4 ± 1.1 (≈ 175 µM) | 2.13 | 3.91 (≈ 10.8 µM) | 62.5 (≈ 172 µM) | 62.50 | 135.32 ± 0.12 (≈ 372 µM) | MIC against Streptococcus pyogenes (Streptococcus pyogenes): 3.64 µM (≈ 1.32 µg/mL); MIC against Clostridium sporogenes (Clostridium sporogenes): 0.91 µM (≈ 0.331 µg/mL)
COc1ccc2c(c1)c1ccnc3ccc(=O)n2c31 [10-methoxycanthin-6-one (6), 10-methoxycanthin-6-one] | 7.81 (≈ 31.2 µM) | 1.95 (≈ 7.79 µM) | 14.7 ± 0.5 (≈ 58.7 µM) | 3.67 | 1.58 (≈ 6.31 µM) | 34.15 | 3.91 (≈ 15.6 µM) | 3.91 (≈ 15.6 µM) | – | 53.95 ± 0.38 (≈ 216 µM) | –
COc1cccc2c1C(=O)c1c(O)c3c(c(O)c1C2=O)C[C@@](O)(C(=O)CO)C[C@@H]3O[C@H]1C[C@H](N)[C@H](O)[C@H](C)O1 [Doxorubicin, reference compound] | – | – | 0.21 ± 0.2 (≈ 0.386 µM) | 1.41 | 0.59 ± 0.01 (≈ 1.09 µM) | 0.51 | – | – | – | – | CC50 at 48 h (in vitro): 0.3 ± 0.12 µg/mL (≈ 0.552 µM)
OC(Cn1cncn1)(Cn1cncn1)c1ccc(F)cc1F [Fluconazole, reference compound] | 1.95 (≈ 6.37 µM) | – | – | – | – | – | – | – | – | – | –
O=c1ccc2nccc3c4ccccc4n1c23 [canthin-6-one (7), canthin-6-one] | 3.91 (≈ 17.8 µM) | 0.48 (≈ 2.18 µM) | 8.12 ± 0.6 (≈ 36.9 µM) | 5.15 | 9.43 ± 0.01 (≈ 42.8 µM) | 4.43 | 1.95 (≈ 8.85 µM) | 0.97 (≈ 4.4 µM) | 0.98 | 41.8 ± 0.64 (≈ 190 µM) | Antimicrobial minimal inhibition concentration (MIC), S. aureus [3, 9]: 0.49 µg/mL
CCCCCCCCCCCCCC(=O)O [myristic acid (1), myristic acid] | > 1000 | > 1000 | 57.7 ± 1.2 (≈ 253 µM) | 1.12 | 80.24 ± 0.12 (≈ 351 µM) | 0.81 | > 1000 | > 1000 | – | 64.86 ± 0.51 (≈ 284 µM) | –
c1cc2c(cc1[C@H]1OC[C@H]3[C@@H]1CO[C@@H]3c1ccc3c(c1)OCO3)OCO2 [sesamin (3), sesamin] | > 1000 | 500 (≈ 1410 µM) | 3.39 ± 1 (≈ 9.57 µM) | 39.97 | 115.06 ± 0.03 (≈ 325 µM) | 1.18 | > 1000 | > 1000 | – | – | CC50 at 48 h (in vitro): 135.31 ± 0.12 µg/mL (≈ 382 µM); Growth inhibition of C. albicans (in words) [1]: no activity; Growth inhibition of MRSA (in words) [2]: no activity; Growth inhibition of E. coli (in words) ([7]; up to 1000 µg/mL): no activity
CC[C@H](/C=C/[C@@H](C)[C@H]1CC[C@H]2[C@@H]3CC=C4C[C@@H](O)CC[C@]4(C)[C@H]3CC[C@]12C)C(C)C [stigmasterol (2), stigmasterol] | – | – | – | 294.94 | – | 0.88 | – | – | – | – | MIC ([1]; ATCC10231, 72 h): > 1000 µg/mL; Growth inhibition of C. albicans (in words) [1]: did not inhibit the growth; MIC [2]: > 1000 µg/mL; Growth inhibition of MRSA (in words) [2]: did not inhibit the growth; MIC [3]: 62.5 µg/mL (≈ 151 µM); CC50 at 48 h [4]: 124 µg/mL (≈ 300 µM); IC50 ([5]; HCC1395, read-out: IC50 Cancerous Cell Lines HCC 1395): 0.42 ± 0.1 µg/mL (≈ 1.02 µM); IC50 ([6]; DU-145, read-out: IC50 Cancerous Cell Lines DU 145): 140.5 ± 1.27 µg/mL (≈ 340 µM); MIC ([7]; ATCC25922, 24 h): 15.6 µg/mL (≈ 37.9 µM)
Omacilin [reference compound] | – | – | – | – | – | – | – | – | 0.98 | – | Antimicrobial minimal inhibition concentration (MIC), S. aureus [3, 9]: 0.49 µg/mL; Antimicrobial minimal inhibition concentration (MIC), E. coli ([7]; ATCC 25922, broth two-fold dilution, 37 °C, 24 h): 0.98 µg/mL
